Results from article PMC6891756, “Synthesis and Biological Evaluation of Novel Aminochalcones as Potential Anticancer and Antimicrobial Agents” (Molecules, 2019).
≈ marks a conversion by molar mass, not a printed value.

Tests used:
LoVo/DX = experiment: SRB antiproliferative assay, LoVo/DX; type: cell-based, human; settings: Homo sapiens, LoVo/DX, 48 h, 1–100 µg·mL^−1, ND = not detected in the tested concentration range
Protocol: (§1) Anticancer activity was evaluated using the sulforhodamine B assay (SRB) on four different human colon cancer cell lines: HT-29, LS180, LoVo and LoVo/DX and green monkey kidney fibroblasts COS7 (ATCC, Manassas, VA, USA). Cell lines HT-29 and COS7 were cultured in α-MEM medium (IIET PAS, Wrocław, Poland), LS180 in OptiMEM medium (IIET PAS), LoVo and LoVo/DX in mixture of α-MEM and OptiMEM medium (1:1 (v:v)). Each culture medium was supplemented with 10% fetal bovine serum, 2 mM glutamine, 100 μg·mL^−1 penicillin, 100 μg·mL^−1 streptomycin and 0.25 μg·mL^−1 amphotericin (all supplements purchased from Gibco (Paisley, UK). Cells were incubated at 37 °C, 5% CO2 in HeraCELL 150i incubator (Thermo Fisher Scientific, Waltham, MA, USA).
(§2) For the SRB assay, cells were seeded onto 96-well plates (Sarstedt, Nümbrecht, Germany) at a density of 5·10^3/well and cultured overnight as described above. Then, the growth medium was gently removed and replaced with fresh medium, supplemented with aminochalcone derivatives in the concentration ranging from 1 µg·mL^−1 to 100 µg·mL^−1. All stock solutions were prepared in DMSO at a concentration of 10 mg·mL^−1. Cells were incubated for 48 h and then the SRB assay was performed as described previously. Each experiment was performed in quadruplicate. The final results were reported as the IC50 values calculated for three independent experiments. Cisplatin (Acros Organics, Waltham, MA, USA) and doxorubicin (Fisher BioReagents, Waltham, MA, USA) were used as positive controls of the test.

LS180 = experiment: SRB antiproliferative assay, LS180; type: cell-based, human; settings: Homo sapiens, LS180, 48 h, 1–100 µg·mL^−1, ND = not detected in the tested concentration range
Protocol: as §1, §2

[1] = SRB assay, normal fibroblasts COS7; type: cell-based, green monkey; settings: green monkey, COS7 kidney fibroblasts (normal cell line), ND = not detected in the tested concentration range
Protocol: as §1, §2

LoVo = experiment: SRB antiproliferative assay, LoVo; type: cell-based, human; settings: Homo sapiens, LoVo, 48 h, 1–100 µg·mL^−1, ND = not detected in the tested concentration range
Protocol: as §1, §2

HT-29 = experiment: SRB antiproliferative assay, HT-29; type: cell-based, human; settings: Homo sapiens, HT-29; SRB, 48 h, 1–100 µg·mL^−1; ND = not detected in the tested concentration range
Protocol: as §1, §2

[2] = system: Escherichia coli ATCC10536; experiment: MIC evaluation (broth method), E. coli; type: cell-based; settings: 48–72 h, read-out: Minimal inhibitory concentration E. coli
Protocol: (§3) Sterile 96-well microtiter plates (Sarstedt) with nutrient broth (for bacteria) (Biocorp) or YM medium (for yeast and filamentous fungi) were inoculated with a standardized cell suspension of bacteria and yeast or fungal spores of 10^5 cell·mL^−1, and supplemented with aminochalcones dissolved in DMSO. […] All analysis were conducted in triplicates. The plates were incubated at 30 °C (bacteria and yeast) or 25 °C (filamentous fungi) for 48–72 h. The results were measured with the Spark® Multimode Microplate Reader (Tecan, Männedorf, Switzerland) at a 560 nm wavelength. The minimal inhibitory concentration was defined as the lowest concentration of a tested compound that completely restricted the growth of the microorganism. In order to verify the obtained results, microbial cultures subjected to each concentration of aminochalcone were inoculated onto nutrient agar or YM plates and incubated as described above. The lack of growth on agar plate was a confirmation of the MIC of the tested compound. The resulting MIC values were compared with the reference substances: oxytetracycline (against bacteria), cycloheximide (against yeast) and nystatin (against fungi) (Sigma Aldrich).

Candida albicans DSM1386 [3] = experiment: Microbial growth curve screening, C. albicans; type: cell-based; settings: 0.1% (w/v); for ∆OD C. albicans: OD at 560 nm, control 1.58; for Lag-phase C. albicans: control 3.0 h
Protocol: (§4) The antimicrobial screening tests were performed on two strains of bacteria: E. coli ATCC10536 and S. aureus DSM799, strain of yeast C. albicans DSM1386 and three strains of fungi: F. linii KB-F1, A. alternata CBS1526 and A. niger DSM1957. All microorganisms were obtained from the collection of the Faculty of Biotechnology and Food Microbiology, Wrocław University of Environmental and Life Sciences. The bacteria were cultured in nutrient broth (Biocorp, Warsaw, Poland), yeast and fungi in YM medium (3 g yeast extract, 3 g malt extract, 5 g bacteriological peptone and 10 g of glucose dissolved in 1 L of distilled water). The tests were carried out in 100-well microtiter plates. To each well 280 μL of culture medium, 10 μL of microorganism suspension and 10 μL of aminochalcone (1–18) dissolved in dimethyl sulfoxide (3% (w/v)) were added. The final concentration of the tested compound (1–18) was 0.1% (w/v). Each experiment were performed in 3 replications. The optical density of the cell suspension was measured on Bioscreen C (Automated Growth Curve Analysis System Lab System, Vantaa, Finland) at 560 nm automatically, at regular intervals of 30 min for 2–3 days. Cell cultures were maintained at 28 °C on a continuous shaker. To prepare the growth curves for each strain, the mean values of the absorbance in a function of time were used. The resulting antimicrobial activity was expressed as the increase of optical density (ΔOD) and was compared to that of the control cultures in the medium supplemented with dimethyl sulfoxide and also with reference substances: oxytetracycline (against bacteria), cycloheximide (against yeast) and nystatin (against fungi) (Sigma Aldrich).

[4] = system: Staphylococcus aureus DSM799; experiment: Microbial growth curve screening, S. aureus; type: cell-based; settings: 0.1% (w/v); for ∆OD S. aureus: OD at 560 nm, control 1.67; for Lag-phase S. aureus: control 2.5 h
Protocol: as §4

[5] = system: Alternaria alternata CBS1526; experiment: Microbial growth curve screening, A. alternata; type: cell-based; settings: 0.1% (w/v); for ∆OD A. alternata: OD at 560 nm, control 1.86; for Lag-phase A. alternata: control 16.5 h
Protocol: as §4

[6] = system: Aspergillus niger DSM1957; experiment: Microbial growth curve screening, A. niger; type: cell-based; settings: 0.1% (w/v); for ∆OD A. niger: OD at 560 nm, control 2.14; for Lag-phase A. niger: control 11.0 h
Protocol: as §4

Fusarium linii KB-F1 = experiment: Microbial growth curve screening, F. linii; type: cell-based; settings: 0.1% (w/v); for ∆OD F. linii: OD at 560 nm, control 1.95; for Lag-phase F. linii: control 13.5 h
Protocol: as §4

[7] = system: Escherichia coli ATCC10536; experiment: Microbial growth curve screening, E. coli; type: cell-based; settings: 0.1% (w/v), OD at 560 nm, control 1.61
Protocol: as §4

Candida albicans DSM1386 [8] = experiment: MIC evaluation (broth method), C. albicans; type: cell-based; settings: DSM1386, read-out: Minimal inhibitory concentration C. albicans
Protocol: as §3

[9] = system: Staphylococcus aureus DSM799; experiment: MIC evaluation (broth method), S. aureus; type: cell-based; settings: 48–72 h, read-out: Minimal inhibitory concentration S. aureus
Protocol: as §3

Compound	IC50 (LoVo/DX) [µg/mL]	IC50 (LS180) [µg/mL]	IC50 at 48 h [1] [µg/mL]	IC50 (LoVo) [µg/mL]	IC50 (HT-29) [µg/mL]	MIC [2] [µg/mL]	∆OD C. albicans (Candida albicans DSM1386 [3])	Lag-phase C. albicans (Candida albicans DSM1386 [3]) [h]	∆OD S. aureus [4]	Lag-phase S. aureus [4] [h]	∆OD A. alternata [5]	Lag-phase A. alternata [5] [h]	∆OD A. niger [6]	Lag-phase A. niger [6] [h]	∆OD F. linii (Fusarium linii KB-F1)	Lag-phase F. linii (Fusarium linii KB-F1) [h]	∆OD E. coli [7]	melting point [°C]	MIC (Candida albicans DSM1386 [8]) [µg/mL]	MIC [9] [µg/mL]
COc1cccc2c1C(=O)c1c(O)c3c(c(O)c1C2=O)C[C@@](O)(C(=O)CO)C[C@@H]3O[C@H]1C[C@H](N)[C@H](O)[C@H](C)O1 [Compound 20, Doxorubicin, reference compound]	5.32 ± 1.44 (≈ 9.79 µM)	0.05 ± 0.02 (≈ 0.092 µM)	3.55 ± 1.15 (≈ 6.53 µM)	0.73 ± 0.18 (≈ 1.34 µM)	0.33 ± 0.02 (≈ 0.607 µM)	–	–	–	–	–	–	–	–	–	–	–	–	–	–	–
CCc1ccc(/C=C/C(=O)c2ccccc2N)cc1 [Compound 4, 2′-Amino-4-ethylchalcone]	4.78 ± 0.19 (≈ 19 µM)	5.1 ± 0.65 (≈ 20.3 µM)	9.57 ± 0.52 (≈ 38.1 µM)	4.77 ± 0.37 (≈ 19 µM)	3.98 ± 0.03 (≈ 15.8 µM)	0.5 (≈ 1.99 µM)	0.98	6.0	0.84	32.5	0.40	26.5	0.60	30.0	1.04	7.5	0.0	34 to 36	–	–
C[C@@H]1C[C@@H]([C@H](O)CC2CC(=O)NC(=O)C2)C(=O)[C@@H](C)C1 [Cycloheximide, reference compound]	–	–	–	–	–	–	0.0	–	–	–	–	–	–	–	–	–	–	–	0.5 (≈ 1.78 µM)	–
Nc1ccc(C(=O)/C=C/c2ccc(C(=O)O)cc2)cc1 [Compound 9, 4′-Amino-4-carboxychalcone]	66.2 ± 1.32 (≈ 248 µM)	18.4 ± 0.19 (≈ 68.7 µM)	32 ± 8.11 (≈ 120 µM)	73.5 ± 0.98 (≈ 275 µM)	32.4 ± 0.99 (≈ 121 µM)	0.125 (≈ 0.468 µM)	0.97	8.5	0.35	37.0	1.12	12.5	0.51	35.0	0.99	13.5	0.0	–	–	–
Nc1cccc(C(=O)/C=C/c2ccc(OCc3ccccc3)cc2)c1 [Compound 14, 3′-Amino-4-benzyloxychalcone]	5.19 ± 0.41 (≈ 15.8 µM)	6.51 ± 0.62 (≈ 19.8 µM)	7.61 ± 0.43 (≈ 23.1 µM)	–	7.54 ± 0.18 (≈ 22.9 µM)	0.0625 (≈ 0.19 µM)	–	4.5	–	33.5	–	12.0	–	20.5	–	6.0	0.0	115 to 120	–	–
Nc1cccc(C(=O)/C=C/c2ccc(C(=O)O)cc2)c1 [Compound 8, 3′-Amino-4-carboxychalcone]	27.44 ± 0.11 (≈ 103 µM)	9.22 ± 0.72 (≈ 34.5 µM)	15.9 ± 1.04 (≈ 59.6 µM)	31.5 ± 0.13 (≈ 118 µM)	12.3 ± 0.32 (≈ 46.1 µM)	0.125 (≈ 0.468 µM)	0.28	23.0	0.0	–	1.14	26.0	1.11	39.0	0.45	13.0	0.0	–	–	0.125 (≈ 0.468 µM)
COc1cc(/C=C/C(=O)c2ccc(N)cc2)ccc1OCc1ccccc1 [Compound 18, 4′-Amino-4-benzyloxy-3-methoxychalcone]	–	4.59 ± 0.29 (≈ 12.8 µM)	–	3.54 ± 0.3 (≈ 9.85 µM)	5.01 ± 0.49 (≈ 13.9 µM)	0.5 (≈ 1.39 µM)	0.68	4.5	0.26	33.5	0.22	21.5	0.65	28.5	0.41	6.5	0.0	–	–	–
CCc1ccc(/C=C/C(=O)c2cccc(N)c2)cc1 [Compound 5, 3′-Amino-4-ethylchalcone]	2.35 ± 0.08 (≈ 9.35 µM)	4.16 ± 0.12 (≈ 16.6 µM)	4.42 ± 0.27 (≈ 17.6 µM)	1.79 ± 0.1 (≈ 7.12 µM)	3.43 ± 0.05 (≈ 13.6 µM)	1 (≈ 3.98 µM)	0.61	9.5	0.98	29.5	0.39	12.0	0.36	25.5	0.80	8.0	0.0	–	–	–
Nc1ccc(C(=O)/C=C/c2ccc(OCc3ccccc3)cc2)cc1 [Compound 15, 4′-Amino-4-benzyloxychalcone]	6.66 ± 0.48 (≈ 20.2 µM)	8.23 ± 0.49 (≈ 25 µM)	13.4 ± 2.78 (≈ 40.6 µM)	7.64 ± 0.53 (≈ 23.2 µM)	7.83 ± 0.14 (≈ 23.8 µM)	0.125 (≈ 0.379 µM)	0.37	16.0	0.22	8.0	1.04	19.5	0.57	25.0	0.50	11.5	0.0	–	–	–
CN(C)[C@@H]1C(O)=C(C(N)=O)C(=O)[C@@]2(O)C(O)=C3C(=O)c4c(O)cccc4[C@@](C)(O)[C@H]3[C@H](O)[C@@H]12 [Oxytetracycline, reference compound]	–	–	–	–	–	0.5 (≈ 1.09 µM)	–	–	0.0	–	–	–	–	–	–	–	0.0	–	–	0.125 (≈ 0.271 µM)
